Source: US7109338B2, “1,2-disubstituted 1,4-dihydro-4-oxoquinoline compounds” (priority 1999, dated 2006)
Converted amounts (≈) assume the structure as drawn.

What was measured:
[1] = system: HRV 2 (HGP); test: Anti-rhinovirus activity (MTT), HRV2; type: cell-based, human rhinovirus; conditions: HeLa (Ohio strain) cells, MTT method, 33° C.
[2] = system: echovirus type 11 (Echo 11, Gregory); test: In vitro anti-picornavirus activity (MTT), Echo 11; type: cell-based; conditions: HeLa-S3 cells, MTT method, 37° C.
[3] = system: coxsackievirus type B4 (CB4,JVB); test: In vitro anti-picornavirus activity (MTT), CB4; type: cell-based; conditions: HeLa cells, MTT method, 37° C.
[4] = system: coxsackievirus type A7 (CA7); test: In vitro anti-picornavirus activity (MTT), CA7; type: cell-based; conditions: HeLa-S3 cells, MTT method, 37° C.
[5] = system: HRV 89 (41617-Gallo); test: Anti-rhinovirus activity (MTT), HRV89; type: cell-based, human rhinovirus; conditions: HeLa (Ohio strain) cells, MTT method, 33° C.
[6] = system: HeLa-S3 cells; test: Cytotoxicity (MTT, without virus), HeLa-S3; conditions: HeLa-S3, no virus, incubated for 4 days
[7] = system: HeLa cells; test: Cytotoxicity (MTT, without virus), HeLa; conditions: HeLa, no virus, incubated for 4 days
[8] = system: HeLa (Ohio strain)cells; test: Cytotoxicity (MTT, without virus), HeLa(Ohio); conditions: HeLa(Ohio), no virus, incubated for 4 days
[9] = system: human rhinovirus type 1B (HRV 1B, B632); test: Anti-rhinovirus activity (MTT), HRV1B; type: cell-based; conditions: HeLa (Ohio strain) cells, MTT method, 33° C.
[10] = system: Poliovirus type 1 (Polio 1, Sabin); test: microbe, parasite or virus in culture; type: cell-based

SMILES | IC50 HRV2 [1] [µg/mL] | IC50 Echo 11 [2] [µg/mL] | IC50 CB4 [3] [µg/mL] | IC50 CA7 [4] [µg/mL] | IC50 HRV89 [5] [µg/mL] | Cytotoxicity CC50 HeLa-S3 [6] [µg/mL] | Cytotoxicity CC50 HeLa [7] [µg/mL] | Cytotoxicity CC50 HeLa(Ohio) [8] [µg/mL] | IC50 HRV1B [9] [µg/mL] | IC50 Polio 1 [10] [µg/mL]
CCOc1ccc(-c2cc(=O)c3cc(C(C)C)ccc3n2C)cc1C [Compound A99] | 0.50 (≈ 1.49 µM) | 0.20 (≈ 0.596 µM) | 1.1 (≈ 3.28 µM) | 1.8 (≈ 5.37 µM) | 0.14 (≈ 0.417 µM) | 5.8 | 5.4 | 5.7 | 0.63 (≈ 1.88 µM) | 0.55 (≈ 1.64 µM)
Cc1cc(-c2cc(=O)c3cc(C(C)C)ccc3n2C)ccc1OC(C)C [Compound A100] | 0.43 (≈ 1.23 µM) | 0.24 (≈ 0.687 µM) | 1.4 (≈ 4.01 µM) | 4.5 (≈ 12.9 µM) | 0.20 (≈ 0.572 µM) | >5 | >5 | >5 | 0.85 (≈ 2.43 µM) | 0.57 (≈ 1.63 µM)
CCn1c(-c2ccccc2)c(C)c(=O)c2ccc(C(C)C)cc21 [Compound A122] | 0.43 (≈ 1.41 µM) | 0.54 (≈ 1.77 µM) | 5.5 (≈ 18 µM) | 6.9 (≈ 22.6 µM) | 0.35 (≈ 1.15 µM) | >10 | >10 | >10 | 0.59 (≈ 1.93 µM) | 1.2 (≈ 3.93 µM)
CCn1c(-c2ccccc2)c(C)c(=O)c2cc(OCC(C)C)ccc21 [Compound A130] | 0.65 (≈ 1.94 µM) | 0.32 (≈ 0.954 µM) | >4 | 0.17 (≈ 0.507 µM) | 0.72 (≈ 2.15 µM) | >4 | >4 | >4 | 0.90 (≈ 2.68 µM) | 0.86 (≈ 2.56 µM)
Cc1c(-c2ccccc2)n(C)c2ccc(NCC(C)C)cc2c1=O [Compound A157] | 0.56 (≈ 1.75 µM) | 0.27 (≈ 0.843 µM) | 4.9 (≈ 15.3 µM) | 3.8 (≈ 11.9 µM) | 1.3 (≈ 4.06 µM) | >5 | >5 | >5 | 1.0 (≈ 3.12 µM) | 0.59 (≈ 1.84 µM)
CCn1c(-c2ccccc2)c(C)c(=O)c2cc(NCC(C)C)ccc21.O [Compound A159] | 0.48 | 0.26 | 3.0 | 2.7 | 0.73 | >5 | >5 | >5 | 0.78 | 0.51
CCn1c(-c2ccccc2)c(C)c(=O)c2cc(NCC(C)C)ccc21.Cl [Compound A160] | 0.45 | 0.27 | 2.9 | 2.7 | 0.78 | >5 | >5 | >5 | 0.73 | 0.55
Cc1c(-c2ccccc2)n(-c2ccccc2F)c2ccc(C(C)C)cc2c1=O [Compound A321] | 0.056 (≈ 0.151 µM) | – | – | – | 0.066 (≈ 0.178 µM) | – | – | >1 | 0.60 (≈ 1.62 µM) | –
